# Test results reported in patent US9365523B2, “Imidazolyl amide compounds and uses related thereto” (priority 2011, dated 2016).
# Tested on: MeV-Alaska
# Assay: Antiviral activity of compound analogs against MeV-Alaska (tables 1-5)
# Format: cell-based, measles virus
# Settings: Measles morbillivirus; Table 5
row,EC50,Structure (SMILES)
1,> 75 µM,COc1ccc(-n2c(SC(C)C(=O)N3CCCCC3)nc3ccccc32)cc1 (stereo not drawn) [Compound 124]
2,1.8 µM,COc1ccc(-n2c([S+]([O-])C(C)C(=O)Nc3ccc(C)cc3Cl)nc3ccccc32)cc1 (stereo not drawn) [Compound 125]
3,> 75 µM,Cc1ccc(NC(=O)C(C)(C)Sc2nc3ccccc3n2-c2ccccc2)c(Cl)c1 [Compound 170]
4,> 75 µM,CCOC(=O)c1ccc2c(c1)nc(SC(C)C(=O)N(Cc1ccc(OC)cc1)c1ncc(Cl)cc1Cl)n2Cc1ccc(OC)cc1 (stereo not drawn) [Compound 134]
5,> 50 µM,Cc1ccc(NC(=O)c2ccccc2-c2nc3ccccc3n2-c2ccccc2)c(Cl)c1 [Compound 163]
6,> 75 µM,COc1ccc(-n2c(CCC(=O)Nc3ncc(C)cc3Cl)nc3ccccc32)cc1 [Compound 135]
7,1.05 µM,COc1ccc(-n2c(SCC(=O)Nc3ccc(C)cc3Cl)nc3ccccc32)cc1 [Compound 140]
8,> 75 µM,Cc1cccc(-n2c(SCCNc3ccccc3)nc3ccccc32)c1 [Compound 172]
9,> 75 µM,Cc1ccc(NC(=O)/C=C/c2nc3ccccc3n2-c2ccccc2)c(Cl)c1 [Compound 162]
10,> 75 µM,Cc1ccc(NC(=O)CSc2nc(-c3ccccc3)c(-c3ccccc3)n2Cc2ccc(F)cc2)c(Cl)c1 [Compound 168]
11,> 75 µM,Cc1cc2nc(SC(C)C(=O)N(Cc3ccc(F)cc3)c3ncc(Cl)cc3Cl)n(Cc3ccc(F)cc3)c2cc1C (stereo not drawn) [Compound 157]
12,> 150 µM,COc1ccc(-n2c(CCC(=O)Nc3ccc(C)cc3Cl)nc3ccccc32)cc1 [Compound 159]
13,> 75 µM,COc1ccc(-n2c(S(=O)(=O)C(C)C(=O)Nc3ccccc3)nc3ccccc32)cc1 (stereo not drawn) [Compound 139]
14,> 75 µM,Cc1ccc(-n2c(SC(C)(C)C(=O)Nc3ccc(C)cc3Cl)nc3ccccc32)cc1 [Compound 145]

row,Structure (SMILES),EC50
1,Cc1ccc(NC(=O)C(C)Sc2nc3ccccc3n2Cc2ccccc2)c(Cl)c1 (stereo not drawn) [Compound 148],> 75 µM
2,COc1ccc(-n2c(SC(C)C(=O)Nc3ccc(C)cc3Cl)nc3cccnc32)cc1 (stereo not drawn) [Compound 154],1.6 µM

# Same assay, conditions: Table 1
row,Structure (SMILES),EC50
1,COc1ccc(-n2c(SC(C)C(=O)Nc3cc(Cl)ccc3Cl)nc3ccccc32)cc1 (stereo not drawn) [Compound 46],0.5 µM
2,COc1ccc(-n2c(SC(C)C(=O)Nc3ncc(C(F)(F)F)cc3Cl)nc3ccccc32)cc1 (stereo not drawn) [Compound 3],0.4 µM
3,COc1ccc(-n2c(SC(C)C(=O)Nc3nnc(C)c(C)n3)nc3ccccc32)cc1 (stereo not drawn) [Compound 6],16.6 µM
4,COc1ccc(-n2c(SC(C)C(=O)Nc3ccc(C)c(Cl)c3)nc3ccccc32)cc1 (stereo not drawn) [Compound 21],0.4 µM
5,COc1ccc(-n2c(SC(C)C(=O)Nc3nc(C)nc(C)c3Cl)nc3ccccc32)cc1 (stereo not drawn) [Compound 30],> 75 µM
6,COc1ccc(-n2c(SC(C)C(=O)Nc3nc(Cl)cc(OC)n3)nc3ccccc32)cc1 (stereo not drawn) [Compound 27],> 75 µM
7,COc1ccc(-n2c(SC(C)C(=O)Nc3ccc(Cl)cn3)nc3ccccc32)cc1 (stereo not drawn) [Compound 38],11.5 µM
8,COc1ccc(-n2c(SC(C)C(=O)Nc3nc(C)c(Br)cc3Br)nc3ccccc32)cc1 (stereo not drawn) [Compound 41],0.5 µM
9,COc1ccc(-n2c(SC(C)C(=O)Nc3ccc(NC(C)=O)c(C)c3)nc3ccccc32)cc1 (stereo not drawn) [Compound 17],> 9.3 µM
10,COc1ccc(-n2c(SC(C)C(=O)Nc3ncc(Cl)cc3Cl)nc3ccccc32)cc1 (stereo not drawn) [Compound 1],0.3 µM
11,COc1ccc(-n2c(SC(C)C(=O)Nc3ccc(Cl)cc3C)nc3ccccc32)cc1 (stereo not drawn) [Compound 20],1.4 µM
12,COc1ccc(-n2c(SC(C)C(=O)Nc3cccc([N+](=O)[O-])c3)nc3ccccc32)cc1 (stereo not drawn) [Compound 33],4.6 µM
13,COc1ccc(-n2c(SC(C)C(=O)Nc3ccc(Cl)c(C)c3)nc3ccccc32)cc1 (stereo not drawn) [Compound 40],6.7 µM
14,COc1ccc(-n2c(SC(C)C(=O)Nc3ccc(F)cc3)nc3ccccc32)cc1 (stereo not drawn) [Compound 47],> 10 µM
15,COc1ccc(-n2c(SC(C)C(=O)Nc3ncc(C)s3)nc3ccccc32)cc1 (stereo not drawn) [Compound 53],> 150 µM
16,COc1ccc(-n2c(SC(C)C(=O)Nc3ncccn3)nc3ccccc32)cc1 (stereo not drawn) [Compound 29],2 µM

row,Structure (SMILES),EC50
1,COc1ccc(-n2c(SC(C)C(=O)Nc3nc(Cl)cc(Cl)n3)nc3ccccc32)cc1 (stereo not drawn) [Compound 44],> 75 µM
2,COc1ccc(-n2c(SC(C)C(=O)Nc3nccc(C)n3)nc3ccccc32)cc1 (stereo not drawn) [Compound 11],0.6 µM
3,COc1ccc(-n2c(SC(C)C(=O)Nc3ccc(C#N)cn3)nc3ccccc32)cc1 (stereo not drawn) [Compound 26],> 75 µM
4,COc1ccc(-n2c(SC(C)C(=O)Nc3ncc(Br)cn3)nc3ccccc32)cc1 (stereo not drawn) [Compound 8],4.1 µM
5,COc1ccc(-n2c(SC(C)C(=O)Nc3ccccc3)nc3ccccc32)cc1 (stereo not drawn) [Compound 25],0.9 µM
6,COc1ccc(-n2c(SC(C)C(=O)Nc3cc(Br)ccc3Br)nc3ccccc32)cc1 (stereo not drawn) [Compound 2],1.7 µM
7,COc1ccc(-n2c(SC(C)C(=O)Nc3cc(OC)cc(OC)c3)nc3ccccc32)cc1 (stereo not drawn) [Compound 13],> 75 µM
8,COc1ccc(-n2c(SC(C)C(=O)Nc3nc(Cl)ccc3Cl)nc3ccccc32)cc1 (stereo not drawn) [Compound 4],0.3 µM
9,COc1ccc(-n2c(SC(C)C(=O)Nc3ccncc3)nc3ccccc32)cc1 (stereo not drawn) [Compound 42],> 75 µM
10,COc1ccc(-n2c(SC(C)C(=O)Nc3ccc(C)cc3)nc3ccccc32)cc1 (stereo not drawn) [Compound 49],0.7 µM
11,COc1ccc(-n2c(SC(C)C(=O)Nc3nccs3)nc3ccccc32)cc1 (stereo not drawn) [Compound 36],4 µM
12,COc1ccc(-n2c(SC(C)C(=O)Nc3nc(C)cs3)nc3ccccc32)cc1 (stereo not drawn) [Compound 35],3.6 µM
13,COc1ccc(-n2c(SC(C)C(=O)Nc3cc(C)nn3C)nc3ccccc32)cc1 (stereo not drawn) [Compound 18],0.9 µM
14,COc1ccc(-n2c(SC(C)C(=O)Nc3ccc(C)cc3C)nc3ccccc32)cc1 (stereo not drawn) [Compound 45],1.1 µM
15,COc1ccc(-n2c(SC(C)C(=O)Nc3ccc(Cl)c(Cl)c3)nc3ccccc32)cc1 (stereo not drawn) [Compound 48],7.3 µM
16,COc1ccc(-n2c(SC(C)C(=O)Nc3nc(C)c(Cl)cc3Cl)nc3ccccc32)cc1 (stereo not drawn) [Compound 43],0.3 µM

# Same assay, conditions: Table 2
row,Structure (SMILES),EC50
1,Cc1ccc(NC(=O)C(C)Sc2nc3ccccc3n2Cc2ccccc2)c(Cl)c1 (stereo not drawn) [Compound 74],0.5 µM
2,CCOc1ccc(-n2c(SC(C)C(=O)Nc3ccc(C)cc3Cl)nc3ccccc32)cc1 (stereo not drawn) [Compound 73],0.05 µM
3,Cc1ccc(NC(=O)C(C)Sc2nc3ccccc3n2C2CCN(C(=O)OC(C)(C)C)CC2)c(Cl)c1 (stereo not drawn) [Compound 93],0.6 µM
4,COc1ccc(Cn2c(SC(C)C(=O)Nc3ccc(C)cc3Cl)nc3ccccc32)cc1 (stereo not drawn) [Compound 85],0.4 µM
5,COC(=O)c1ccc(-n2c(SC(C)C(=O)Nc3ccc(C)cc3Cl)nc3ccccc32)cc1 (stereo not drawn) [Compound 99],1.1 µM
6,Cc1ccc(NC(=O)C(C)Sc2nc3ccccc3n2-c2ccc(OCCO)cc2)c(Cl)c1 (stereo not drawn) [Compound 58],4.6 µM
7,CC(=O)NCCOc1ccc(-n2c(SC(C)C(=O)Nc3ccc(C)cc3Cl)nc3ccccc32)cc1 (stereo not drawn) [Compound 61],> 10 µM
8,COc1ccc(-n2c(SC(C)C(=O)Nc3ccc(C)cc3Cl)nc3ccccc32)cc1 (stereo not drawn) [Compound 86],0.17 µM
9,COc1cc(OC)cc(-n2c(SC(C)C(=O)Nc3ccc(C)cc3Cl)nc3ccccc32)c1 (stereo not drawn) [Compound 87],0.4 µM
10,Cc1ccc(NC(=O)C(C)Sc2nc3ccccc3n2-c2ccc(CN3CCN(C)CC3)cc2)c(Cl)c1 (stereo not drawn) [Compound 63],4.9 µM
11,Cc1ccc(NC(=O)C(C)Sc2nc3ccccc3n2S(=O)(=O)c2ccccc2)c(Cl)c1 (stereo not drawn) [Compound 90],0.04 µM
12,Cc1ccc(NC(=O)C(C)Sc2nc3ccccc3n2-c2ccc(OCC(=O)O)cc2)c(Cl)c1 (stereo not drawn) [Compound 68],> 9.3 µM
13,Cc1ccc(NC(=O)C(C)Sc2nc3ccccc3n2-c2ccc(N3CCN(C)CC3)cc2)c(Cl)c1 (stereo not drawn) [Compound 70],2 µM
14,Cc1ccc(NC(=O)C(C)Sc2nc3ccccc3n2-c2ccc(CN3CCOCC3)cc2)c(Cl)c1 (stereo not drawn) [Compound 56],0.32 µM
15,Cc1ccc(NC(=O)C(C)Sc2nc3ccccc3n2-c2ccc(NCCN(C)C)cc2)c(Cl)c1 (stereo not drawn) [Compound 59],4.2 µM
16,Cc1ccc(NC(=O)C(C)Sc2nc3ccccc3n2-c2ccccc2CN2CCN(C)CC2)c(Cl)c1 (stereo not drawn) [Compound 67],0.18 µM
17,Cc1ccc(NC(=O)C(C)Sc2nc3ccccc3n2-c2ccc(C(=O)O)cc2)c(Cl)c1 (stereo not drawn) [Compound 97],> 75 µM
18,Cc1ccc(NC(=O)C(C)Sc2nc3ccccc3n2C2CCNCC2)c(Cl)c1 (stereo not drawn) [Compound 92],> 75 µM
19,Cc1ccc(NC(=O)C(C)Sc2nc3ccccc3n2-c2ccc(CO)cc2)c(Cl)c1 (stereo not drawn) [Compound 81],3.91 µM
20,Cc1ccc(NC(=O)C(C)Sc2nc3ccccc3n2-c2ccc(N=[N+]=[N-])cc2)c(Cl)c1 (stereo not drawn) [Compound 95],0.31 µM
21,Cc1ccc(NC(=O)C(C)Sc2nc3ccccc3n2C(=O)c2ccccc2)c(Cl)c1 (stereo not drawn) [Compound 91],> 9.3 µM
22,Cc1ccc(NC(=O)C(C)Sc2nc3ccccc3n2-c2ccccc2CN2CCOCC2)c(Cl)c1 (stereo not drawn) [Compound 79],0.3 µM
23,Cc1ccc(NC(=O)C(C)Sc2nc3ccccc3n2-c2ccc(O)cc2)c(Cl)c1 (stereo not drawn) [Compound 76],3.8 µM
24,CNCCc1ccc(-n2c(SC(C)C(=O)Nc3ccc(C)cc3Cl)nc3ccccc32)cc1 (stereo not drawn) [Compound 66],8.7 µM

# Same assay, conditions: Table 3
row,Structure (SMILES),EC50
1,Cc1nnc(NC(=O)C(C)Sc2nc3ccccc3n2-c2ccc(F)cc2)nc1C (stereo not drawn) [Compound 106],23 µM
2,COc1ccc(Cn2c(SC(C)C(=O)Nc3ccc(Cl)cc3Cl)nc3ccccc32)cc1 (stereo not drawn) [Compound 117],1.7 µM
3,CC(Sc1nc2ccccc2n1C)C(=O)Nc1ncc(Cl)cc1Cl (stereo not drawn) [Compound 113],> 10 µM
4,CC(Sc1nc2ccccc2n1-c1ccc(O)cc1)C(=O)Nc1ncc(Cl)cc1Cl (stereo not drawn) [Compound 103],7.7 µM
5,CC(Sc1nc2ccccc2n1Cc1ccccc1)C(=O)Nc1ncc(Cl)cc1Cl (stereo not drawn) [Compound 111],4.9 µM
6,Cc1cnc(NC(=O)C(C)Sc2nc3ccccc3n2-c2ccc(F)cc2)c(Cl)c1 (stereo not drawn) [Compound 116],0.8 µM
7,CCOc1ccc(-n2c(SC(C)C(=O)Nc3cc(C)cc(C)n3)nc3ccccc32)cc1 (stereo not drawn) [Compound 115],1.5 µM
8,CC(Sc1nc2ccccc2n1-c1ccc(F)cc1)C(=O)Nc1ncc(Cl)cc1Cl (stereo not drawn) [Compound 101],0.3 µM
9,COc1cccc(-n2c(SC(C)C(=O)Nc3ncc(C)cc3Cl)nc3ccccc32)c1 (stereo not drawn) [Compound 108],0.4 µM
